The results in this text go back to ChEMBL document CHEMBL4418299, “Compounds useful as csf1 modulators” (2016).

The target of this assay is Macrophage colony-stimulating factor 1 receptor (Homo sapiens, UniProt P07333). Kind of assay: Displacement of kinase tracer 236 from recombinant human His-tagged CSF1R cytoplasmic domain (538 to 910 residues) expressed in baculovirus-infected insect cells measured after 5 hrs by TR-FRET based LanthaScreen assay.
Sequence of Macrophage colony-stimulating factor 1 receptor (P07333 whole entry, the tested form may be a part): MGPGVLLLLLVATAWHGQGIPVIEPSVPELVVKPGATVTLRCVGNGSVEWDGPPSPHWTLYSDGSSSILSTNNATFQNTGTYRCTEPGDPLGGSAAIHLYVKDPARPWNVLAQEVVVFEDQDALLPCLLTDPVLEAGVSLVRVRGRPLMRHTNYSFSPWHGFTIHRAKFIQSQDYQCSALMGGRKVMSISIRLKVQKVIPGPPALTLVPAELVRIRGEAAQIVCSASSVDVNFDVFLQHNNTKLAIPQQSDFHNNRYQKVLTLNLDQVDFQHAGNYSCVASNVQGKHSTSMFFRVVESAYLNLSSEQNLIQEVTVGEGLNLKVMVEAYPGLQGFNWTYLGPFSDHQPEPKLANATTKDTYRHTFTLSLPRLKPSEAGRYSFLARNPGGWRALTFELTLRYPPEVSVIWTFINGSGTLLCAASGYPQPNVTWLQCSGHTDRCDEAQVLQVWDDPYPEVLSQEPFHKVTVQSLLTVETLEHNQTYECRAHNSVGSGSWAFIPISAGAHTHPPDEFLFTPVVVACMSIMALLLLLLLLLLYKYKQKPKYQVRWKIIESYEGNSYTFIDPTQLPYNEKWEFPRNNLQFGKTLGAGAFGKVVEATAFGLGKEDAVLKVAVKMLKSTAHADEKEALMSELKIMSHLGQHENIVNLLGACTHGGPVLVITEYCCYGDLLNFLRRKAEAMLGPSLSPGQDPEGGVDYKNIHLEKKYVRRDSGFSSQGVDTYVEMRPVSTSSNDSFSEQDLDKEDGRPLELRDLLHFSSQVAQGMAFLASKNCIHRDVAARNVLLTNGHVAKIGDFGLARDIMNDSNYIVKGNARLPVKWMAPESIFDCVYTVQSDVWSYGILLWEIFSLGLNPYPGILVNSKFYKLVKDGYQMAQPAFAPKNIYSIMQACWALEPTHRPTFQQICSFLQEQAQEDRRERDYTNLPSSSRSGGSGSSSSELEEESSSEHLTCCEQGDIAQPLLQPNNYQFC
As to `COc1cc(-n2c3c(c4ncnc(N)c42)CCC3)ccc1NC(=O)Cn1cnc(C(F)(F)F)c1`, the IC50 lay within 10 to 200 nM.

On to `COc1cc(-n2c3c(c4ncnc(N)c42)CCC3)ccc1NC(=O)Cc1cc(C(F)F)on1`, for which the IC50 was less than 10 nM.

Consider `COc1cc(-n2c3c(c4ncnc(N)c42)CCC3)ccc1NC(=O)Cc1nc(C(C)C)no1`, for which the IC50 is less than 10 nM.

As to `COc1cc(-n2c3c(c4ncnc(N)c42)COC3)ccc1NC(=O)Cc1ccc(C)c(F)c1`, the IC50 was less than 10 nM.

`CNC(=O)c1ccc(CC(=O)Nc2ccc(-n3c4c(c5ncnc(N)c53)CCC4)cc2OC)cc1`: the IC50 is more than 200 nM.

With `Nc1ncnc2c3c(n(-c4ccc(NC(=O)Cc5cc(C(F)(F)F)no5)cc4)c12)CCC3`, the IC50 was less than 10 nM.

In the case of `COc1cc(-n2c3c(c4ncnc(N)c42)COC3)ccc1NC(=O)Cn1cc(C(C)(C)C)cn1`, the half-maximal inhibitory concentration (IC50) fell in the range of 10 to 200 nM.

In the case of `COc1cc(-n2c3c(c4ncnc(N)c42)CCC3)ccc1NC(=O)Cn1cc(C(F)(F)F)cn1`, the IC50 was less than 10 nM.

On to `COc1cc(-n2c3c(c4ncnc(N)c42)COC3)ccc1NC(=O)Cn1cc(C(F)(F)F)cn1`, for which the IC50 lay within 10 to 200 nM.

On to `COc1cc(-n2c3c(c4ncnc(N)c42)COC3)ccc1NC(=O)Cc1nccc(C(F)(F)F)n1`, for which the IC50 is more than 200 nM.

Take `CC(C)(C)c1ccn(CC(=O)Nc2ccc(-n3c4c(c5ncnc(N)c53)COC4)cc2)n1`: the IC50 is 10 to 200 nM.

As to `COc1cc(-n2c3c(c4ncnc(N)c42)CCC3)ccc1NC(=O)Cc1nccc(C(F)(F)F)n1`, the IC50 fell in the range of 10 to 200 nM.

In the case of `Nc1ncnc2c3c(n(-c4ccc(NC(=O)Cc5cnn(C(F)F)c5)cc4)c12)CCC3`, the half-inhibitory concentration (IC50) was 10 to 200 nM.

Regarding `COc1cc(-n2c3c(c4ncnc(N)c42)CCC3)ccc1NC(=O)Cc1ccnc(C(F)(F)F)n1`, the IC50 was in the range of 10 to 200 nM.

As to `COc1cc(-n2c3c(c4ncnc(N)c42)COC3)ccc1NC(=O)CN1C(=O)COc2ccccc21`, the IC50 is more than 200 nM.

`Nc1ncnc2c3c(n(-c4ccc(NC(=O)Cn5ccc(C(F)(F)F)n5)cc4)c12)COC3`: the IC50 is 10 to 200 nM.

With `Nc1ncnc2c3c(n(-c4ccc(NC(=O)Cn5ccc(C(F)(F)F)n5)cc4)c12)CCC3`, the IC50 was less than 10 nM.

In the case of `COc1cc(-n2c3c(c4ncnc(N)c42)CCC3)ccc1NC(=O)Cc1ccc(C(=O)N(C)C)cc1`, the concentration for half-maximal inhibition (IC50) was 10 to 200 nM.

As for `COc1cc(-n2c3c(c4ncnc(N)c42)CCC3)ccc1NC(=O)Cc1nnccc1C(F)(F)F`, the IC50 was more than 200 nM.

Regarding `COc1cc(-n2c3c(c4ncnc(N)c42)CCC3)ccc1NC(=O)Cc1coc(C(C)C)n1`, the IC50 was less than 10 nM.

With `COc1cc(-n2c3c(c4ncnc(N)c42)COC3)ccc1NC(=O)Cn1nc(C)cc1C(F)(F)F`, the IC50 is more than 200 nM.

For the compound `COc1cc(CC(=O)Nc2ccc(-n3c4c(c5ncnc(N)c53)CCC4)cc2OC)cc(OC)c1`, the IC50 was less than 10 nM.

For `COc1cc(-n2c3c(c4ncnc(N)c42)COC3)ccc1NC(=O)Cn1cnc(C(F)(F)F)c1`, the IC50 fell in the range of 10 to 200 nM.

Consider `COc1cc(-n2c3c(c4ncnc(N)c42)CCC3)ccc1NC(=O)Cc1cc(C(F)(F)F)on1`, for which the IC50 is less than 10 nM.

Turning to `COc1cc(-n2c3c(c4ncnc(N)c42)CCC3)ccc1NC(=O)Cc1c(C)noc1C`, the concentration for half-maximal inhibition (IC50) is more than 200 nM.

Take `COc1cc(-n2c3c(c4ncnc(N)c42)CCC3)ccc1NC(=O)CN1C(=O)COc2ccccc21`: the IC50 is 10 to 200 nM.

In the case of `COc1cc(-n2c3c(c4ncnc(N)c42)CCC3)ccc1NC(=O)Cc1cc(C(F)(F)F)no1`, the IC50 was less than 10 nM.

On to `COc1cc(-n2c3c(c4ncnc(N)c42)CCC3)ccc1NC(=O)Cn1nc(C)cc1C`, for which the IC50 lay within 10 to 200 nM.

As for `Cn1ncc(CC(=O)Nc2ccc(-n3c4c(c5ncnc(N)c53)CCC4)cc2)c1C(F)(F)F`, the IC50 was less than 10 nM.

`COc1cc(-n2c3c(c4ncnc(N)c42)COC3)ccc1NC(=O)Cn1ccc(C(C)(C)C)n1`: the IC50 lay in the range of 10 to 200 nM.

Turning to `COc1cc(-n2c3c(c4ncnc(N)c42)CCC3)ccc1NC(=O)Cc1cc(C(F)(F)F)cnn1`, the IC50 was 10 to 200 nM.

As for `Nc1ncnc2c3c(n(-c4ccc(NC(=O)Cn5cnc(C(F)(F)F)c5)cc4)c12)COC3`, the IC50 is less than 10 nM.

Regarding `COc1cc(-n2c3c(c4ncnc(N)c42)CCC3)ccc1CC(=O)Nc1cc(C)ccc1F`, the IC50 was less than 10 nM.

Turning to `COc1cc(-n2c3c(c4ncnc(N)c42)COC3)ccc1NC(=O)Cc1ccc(C)cc1F`, the 50% inhibitory concentration (IC50) was less than 10 nM.

Turning to `COc1cc(-n2c3c(c4ncnc(N)c42)CCC3)ccc1NC(=O)Cc1cnn(C)c1C(F)(F)F`, the IC50 was less than 10 nM.

As for `COc1cc(-n2c3c(c4ncnc(N)c42)COC3)ccc1NC(=O)Cn1ccc(C(C)C)n1`, the IC50 was less than 10 nM.

`COc1cc(-n2c3c(c4ncnc(N)c42)CCC3)ccc1NC(=O)Cc1ccc(C(C)(C)C)cc1`: the IC50 lay within 10 to 200 nM.

For the compound `CC(C)c1ccn(CC(=O)Nc2ccc(-n3c4c(c5ncnc(N)c53)CCC4)cc2)n1`, the IC50 was less than 10 nM.

Turning to `COc1cc(-n2c3c(c4ncnc(N)c42)CCC3)ccc1NC(=O)CN1CCCc2cc(F)ccc21`, the IC50 was 10 to 200 nM.

As to `Nc1ncnc2c3c(n(-c4ccc(NC(=O)Cc5ccccc5)c(C(F)(F)F)c4)c12)CCC3`, the IC50 was more than 200 nM.

Consider `COc1ccc(CC(=O)Nc2ccc(-n3c4c(c5ncnc(N)c53)COC4)cc2OC)c(F)c1`, for which the IC50 is 10 to 200 nM.

Turning to `COc1cc(-n2c3c(c4ncnc(N)c42)COC3)ccc1NC(=O)CN1CCOc2ccccc21`, the IC50 is more than 200 nM.

Turning to `COc1cc(-n2c3c(c4ncnc(N)c42)CCC3)ccc1CC(=O)Nc1ccc(C(F)(F)F)cn1`, the IC50 is less than 10 nM.

On to `Nc1ncnc2c3c(n(-c4ccc(NC(=O)Cn5cc(C(F)(F)F)cn5)cc4)c12)CCC3`, for which the IC50 is less than 10 nM.

Regarding `COc1cc(-n2c3c(c4ncnc(N)c42)COC3)ccc1NC(=O)Cn1ncc2ccccc21`, the IC50 fell in the range of 10 to 200 nM.

For the compound `COc1cc(-n2c3c(c4ncnc(N)c42)COC3)ccc1NC(=O)Cc1ccnc(C(F)(F)F)n1`, the IC50 is more than 200 nM.

As for `COc1cc(-n2c3c(c4ncnc(N)c42)COC3)ccc1NC(=O)Cc1cccc(OC)c1C`, the IC50 is less than 10 nM.

Regarding `Nc1ncnc2c3c(n(-c4ccc(NC(=O)Cn5cnc(C(F)(F)F)c5)cc4)c12)CCC3`, the IC50 is less than 10 nM.

In the case of `COc1cc(-n2c3c(c4ncnc(N)c42)CCC3)ccc1NC(=O)Cc1cc(C(F)(F)F)nn1C`, the IC50 was in the range of 10 to 200 nM.

Take `COc1cc(-n2c3c(c4ncnc(N)c42)COC3)ccc1NC(=O)Cc1cnn(C)c1C(F)(F)F`: the IC50 is more than 200 nM.

In the case of `COc1cc(-n2c3c(c4ncnc(N)c42)CCC3)ccc1CC(=O)Nc1ccc(C(F)(F)F)nc1`, the IC50 is less than 10 nM.

Consider `CC(C)(C)c1cnn(CC(=O)Nc2ccc(-n3c4c(c5ncnc(N)c53)COC4)cc2)c1`, for which the IC50 is less than 10 nM.

With `COc1cc(-n2c3c(c4ncnc(N)c42)CCC3)ccc1NC(=O)Cc1cnn(C)c1`, the IC50 lay within 10 to 200 nM.

As for `Nc1ncnc2c3c(n(-c4ccc(NC(=O)Cc5nnc(C(F)(F)F)o5)cc4)c12)CCC3`, the IC50 is more than 200 nM.

`COc1cc(-n2c3c(c4ncnc(N)c42)CCC3)ccc1NC(=O)Cn1cc(C(F)(F)F)nc1C`: the IC50 lay in the range of 10 to 200 nM.

For `Nc1ncnc2c3c(n(-c4ccc(NC(=O)Cn5ccc(C6CC6)n5)cc4)c12)CCC3`, the IC50 was less than 10 nM.

Regarding `COc1cc(-n2c3c(c4ncnc(N)c42)CCC3)ccc1NC(=O)Cn1ccc(C2CC2)n1`, the IC50 is less than 10 nM.

For `Nc1ncnc2c3c(n(-c4ccc(NC(=O)Cc5cc(C(F)F)on5)cc4)c12)CCC3`, the IC50 was 10 to 200 nM.

For the compound `COc1cc(-n2c3c(c4ncnc(N)c42)COC3)ccc1NC(=O)Cc1csc(C(C)C)n1`, the IC50 lay within 10 to 200 nM.

Regarding `COc1cc(-n2c3c(c4ncnc(N)c42)CCC3)ccc1NC(=O)Cc1nnn(C(C)(C)C)n1`, the IC50 was less than 10 nM.

Turning to `COc1cc(-n2c3c(c4ncnc(N)c42)CCC3)ccc1NC(=O)Cc1csc(C(C)C)n1`, the half-inhibitory concentration (IC50) is less than 10 nM.

Regarding `COc1cc(-n2c3c(c4ncnc(N)c42)CCC3)ccc1NC(=O)Cn1nc(C)cc1C(F)(F)F`, the IC50 is 10 to 200 nM.

Regarding `COc1cc(-n2c3c(c4ncnc(N)c42)CCC3)ccc1NC(=O)Cc1cnn(C(F)F)c1`, the IC50 is less than 10 nM.

Turning to `Cn1nc(C(F)(F)F)cc1CC(=O)Nc1ccc(-n2c3c(c4ncnc(N)c42)CCC3)cc1`, the IC50 is less than 10 nM.

`COc1cc(-n2c3c(c4ncnc(N)c42)CCC3)ccc1NC(=O)Cn1ccc(C(F)(F)F)n1`: the IC50 is less than 10 nM.

Regarding `Nc1ncnc2c3c(n(-c4ccc(NC(=O)Cn5cc(C(F)(F)F)cn5)cc4)c12)COC3`, the IC50 lay in the range of 10 to 200 nM.

With `COc1cc(-n2c3c(c4ncnc(N)c42)CCC3)ccc1NC(=O)Cc1ccn(C)n1`, the IC50 was more than 200 nM.

Turning to `COc1cc(-n2c3c(c4ncnc(N)c42)CCC3)ccc1NC(=O)Cn1ccc(C(C)(C)C)n1`, the IC50 was less than 10 nM.

`CC(C)c1noc(CC(=O)Nc2ccc(-n3c4c(c5ncnc(N)c53)CCC4)cc2)n1`: the IC50 fell in the range of 10 to 200 nM.

Consider `COc1cc(CC(=O)Nc2ccc(-n3c4c(c5ncnc(N)c53)COC4)cc2OC)cc(OC)c1`, for which the IC50 was 10 to 200 nM.

Regarding `CC(C)(C)c1cnn(CC(=O)Nc2ccc(-n3c4c(c5ncnc(N)c53)CCC4)cc2)c1`, the IC50 was less than 10 nM.

In the case of `COc1cc(-n2c3c(c4ncnc(N)c42)COC3)ccc1NC(=O)Cn1ccc(C(F)(F)F)n1`, the IC50 was in the range of 10 to 200 nM.

In the case of `COc1cc(-n2c3c(c4ncnc(N)c42)CCC3)ccc1NC(=O)CN1CCOc2ccccc21`, the 50% inhibitory concentration (IC50) lay within 10 to 200 nM.

`COc1cc(-n2c3c(c4ncnc(N)c42)CCC3)ccc1NC(=O)Cc1ccn(C(F)F)n1`: the IC50 was less than 10 nM.

Consider `Nc1ncnc2c3c(n(-c4ccc(NC(=O)Cc5cc(C(F)(F)F)on5)cc4)c12)CCC3`, for which the IC50 was less than 10 nM.

Regarding `COc1cc(-n2c3c(c4ncnc(N)c42)COC3)ccc1NC(=O)Cc1cc(C(F)(F)F)on1`, the IC50 was in the range of 10 to 200 nM.

With `Nc1ncnc2c3c(n(-c4ccc(NC(=O)Cc5ccccc5)c(OC(F)(F)F)c4)c12)CCC3`, the IC50 was more than 200 nM.

Turning to `Nc1ncnc2c3c(n(-c4ccc(NC(=O)Cc5ccccc5)c(Cl)c4)c12)CCC3`, the IC50 is more than 200 nM.

On to `COc1cc(-n2c3c(c4ncnc(N)c42)CCC3)ccc1NC(=O)Cc1ccc2c(c1)CN(C)C2=O`, for which the IC50 was more than 200 nM.

`COc1cc(-n2c3c(c4ncnc(N)c42)CCC3)ccc1NC(=O)Cn1cc(C)cn1`: the IC50 is less than 10 nM.

On to `COc1cc(-n2c3c(c4ncnc(N)c42)COC3)ccc1NC(=O)Cc1csc(C(C)(C)C)n1`, for which the IC50 was in the range of 10 to 200 nM.
